± gives the standard deviation of the averaged measurements.
What was measured:
Test in all cases: LOEC (log10 uM (lowest observed effect concentration))
[1] = compound: OCCC(F)(F)C(F)(F)C(F)(F)C(F)(F)C(F)(F)C(F)(F)C(F)(F)C(F)(F)F [8:2 Fluorotelomer alcohol]
Procedure: (§1)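 BioMAP Diversity Plus panel in human primary cell co-cultures, 4 concentrations in duplicate blinded samples. Responses are log10 fold change versus DMSO control, processed with tcpl v2.1.0. A hit is called when responses at any concentration exceed the cutoff (the larger of 3*bmad or log10(1.2)); the lowest observed effect concentration (modl_ga, log10 uM) is reported for hits.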

[2] = compound: OC(C(F)(F)F)(C(F)(F)F)C(O)(C(F)(F)F)C(F)(F)F [Perfluoropinacol]
Procedure: as §1

[3] = compound: O=C(CC(=O)C(F)(F)C(F)(F)C(F)(F)F)c1cccs1 [(Perfluorobutyryl)-2-thenoylmethane]
Procedure: as §1

[4] = compound: FC(F)(I)C(F)(F)C(F)(F)C(F)(F)C(F)(F)C(F)(F)I [1,6-Diiodoperfluorohexane]
Procedure: as §1

[5] = compound: OCCCC(F)(F)C(F)(F)C(F)(F)C(F)(F)C(F)(F)C(F)(F)C(F)(F)C(F)(F)F [3-(Perfluorooctyl)propanol]
Procedure: as §1

[6] = compound: C=CC(=O)OCC(F)(F)C(F)(F)C(F)(F)C(F)(F)COC(=O)C=C [1H,1H,6H,6H-Perfluorohexane-1,6-diol diacrylate]
Procedure: as §1

[7] = compound: OCC(F)(F)C(F)(F)C(F)(F)C(F)(F)C(F)(F)C(F)(F)C(F)(F)C(F)(F)CO [1H,1H,10H,10H-Perfluorodecane-1,10-diol]
Procedure: as §1

Test System | LOEC (log10 uM) [1] | LOEC (log10 uM) [2] | LOEC (log10 uM) [3] | LOEC (log10 uM) [4] | LOEC (log10 uM) [5] | LOEC (log10 uM) [6] | LOEC (log10 uM) [7]
BE3C SRB down | 1.3 | 1.78 | 1.78 | 1.78 | 1.78 | – | –
MyoF PAI1 down | 1.3 | 1.78 | – | 1.07 ± 0.32 | 1.3 | 1.3 | –
hDFCGF CollagenI down | 1.78 | – | 1.3 | – | – | – | –
MyoF CollagenI down | 1.3 | 1.78 | 1.3 | 0.845 | 1.3 | 1.3 | –
LPS Eselectin down | 1.78 | 1.78 | – | 1.54 ± 0.34 | 0.845 | 1.3 | –
CASM3C TissueFactor up | – | – | – | – | – | 1.78 | –
LPS Thrombomodulin down | – | 1.07 ± 0.32 | – | – | – | – | –
3C Eselectin down | – | 1.54 ± 0.34 | 1.78 | 1.54 ± 0.34 | 1.54 ± 0.34 | 1.3 | –
SAg CD69 down | 1.54 ± 0.34 | 1.3 | 0.845 | 1.78 | 1.54 ± 0.34 | 1.3 | –
BF4T ICAM1 down | 1.78 | – | 1.78 | 1.07 ± 0.32 | 1.3 | 1.3 | 1.3
IMphg MCSF down | 1.78 | 1.54 ± 0.34 | – | 1.78 | 1.78 | 1.54 ± 0.34 | 1.78
KF3CT PAI1 down | 1.3 | 1.78 | – | 0.845 | 1.07 ± 0.32 | 1.3 | 1.78
KF3CT MCP1 up | – | 1.3 | – | – | – | – | –
BE3C MMP1 down | – | – | 1.78 | – | – | – | –
4H uPAR down | 1.3 | 1.07 ± 0.32 | 1.78 | 1.78 | 1.54 ± 0.34 | 1.78 | –
LPS CD40 down | 1.3 | 1.3 | 1.54 ± 0.34 | 1.78 | 1.3 | 0.845 | –
CASM3C IL8 down | – | – | – | 1.54 ± 0.34 | 1.78 | – | –
CASM3C MCP1 up | – | 1.54 ± 0.34 | – | – | – | – | –
BE3C uPA down | 1.78 | 1.78 | 1.78 | 1.78 | 1.78 | 1.54 ± 0.34 | –
MyoF TIMP1 down | 1.3 | – | – | 1.3 | 1.3 | 1.3 | –
BF4T MMP1 down | – | – | 1.54 ± 0.34 | 1.78 | 1.78 | – | –
KF3CT TIMP2 down | 1.3 | 1.78 | – | 1.07 ± 0.32 | 1.3 | 1.07 ± 0.32 | 1.78
KF3CT MCP1 down | 1.3 | – | – | 0.845 | 1.3 | 1.07 ± 0.32 | 1.78
BF4T Keratin818 down | – | – | 1.3 | 1.78 | 1.54 ± 0.34 | – | –
SAg Eselectin down | 1.54 ± 0.34 | 1.3 | 0.845 | 1.78 | 1.78 | 0.845 | –
CASM3C uPAR down | 1.78 | 1.54 ± 0.34 | 1.78 | 1.78 | 1.78 | 1.78 | –

Test System | LOEC (log10 uM) [1] | LOEC (log10 uM) [2] | LOEC (log10 uM) [3] | LOEC (log10 uM) [4] | LOEC (log10 uM) [5] | LOEC (log10 uM) [6] | LOEC (log10 uM) [7]
hDFCGF SRB up | – | – | 0.845 | – | – | – | –
BE3C IL1a down | 1.3 | 1.3 | 1.3 | 1.78 | 1.78 | 1.07 ± 0.32 | –
KF3CT MIG down | 1.54 ± 0.34 | 1.78 | – | 1.07 ± 0.32 | 1.3 | 1.3 | 1.78
CASM3C LDLR down | 1.78 | – | 1.54 ± 0.34 | 1.54 ± 0.34 | 1.78 | – | –
SAg CD38 down | 1.3 | 1.3 | 1.07 ± 0.32 | 1.78 | 1.3 | 1.3 | –
CASM3C SAA down | 1.78 | – | 1.78 | 1.3 | 1.78 | 1.3 | –
SAg MCP1 down | 1.78 | 1.54 ± 0.34 | 1.3 | 1.78 | 1.54 ± 0.34 | 1.07 ± 0.32 | –
CASM3C MCP1 down | 1.78 | – | 1.78 | 1.3 | 1.54 ± 0.34 | 1.78 | –
hDFCGF MCP1 up | – | 1.3 | – | – | – | – | –
hDFCGF ICAM1 down | 1.3 | – | – | 0.845 | 1.07 ± 0.32 | 0.845 | 1.78
IMphg IL8 down | – | – | – | 1.78 | – | – | 1.78
KF3CT IL1a down | 1.3 | – | – | 1.3 | 0.845 | 1.54 ± 0.34 | –
4H VEGFRII down | 1.54 ± 0.34 | 1.54 ± 0.34 | 1.3 | – | 1.78 | 1.54 ± 0.34 | –
BF4T IL8 down | – | – | – | 1.3 | 1.78 | – | –
LPS TissueFactor up | – | – | 1.3 | – | – | – | –
BE3C tPA down | 1.3 | 1.3 | 1.3 | 1.78 | 1.78 | 1.54 ± 0.34 | –
3C MIG down | – | 1.78 | 1.78 | 1.78 | 1.78 | 1.3 | –
LPS IL8 down | 1.54 ± 0.34 | – | – | 1.54 ± 0.34 | 0.845 | 1.3 | –
hDFCGF SRB down | 1.3 | – | – | 0.845 | 0.845 | 0.845 | 1.54 ± 0.34
3C uPAR down | 1.3 | 0.845 | 0.845 | 1.78 | 1.54 ± 0.34 | 1.3 | –
BF4T MMP9 down | 1.3 | – | 1.3 | 1.07 ± 0.32 | 1.3 | 1.54 ± 0.34 | 1.78
BF4T IL1a down | – | – | 1.78 | 1.54 ± 0.34 | 1.78 | 1.78 | –
CASM3C HLADR down | 1.3 | 1.07 ± 0.32 | 1.78 | 1.3 | 1.78 | 1.54 ± 0.34 | –
LPS MCSF down | 1.04 ± 1 | 1.3 | – | 1.78 | 1.3 | 1.3 | –
LPS VCAM1 down | 1.07 ± 0.32 | 1.54 ± 0.34 | 1.78 | 1.54 ± 0.34 | 1.07 ± 0.32 | 1.3 | –
3C TissueFactor down | 1.54 ± 0.34 | 1.3 | 1.3 | 1.78 | 1.3 | 1.07 ± 0.32 | –

From the supplement of paper PMC10331698
